Results: patent publication US11701315B2, “High energy visible light filter systems with yellowness index values” (High Performance Optics, Inc., priority 2006, dated 2023)

Columns and labels:
[1] = Transmission and absorption properties stated in the text for known lenses and dyes; assay type: physicochemical
[2] = in methanol, cited from earlier work

c1cc2cccc3c4cccc5cccc(c(c1)c23)c54 [perylene]
absorption maximum [1]: 437 nm

CC1=C(/C=C/C(C)=C/C=C/C(C)=C/c2cc(/C=C/C=C(C)/C=C/C3=C(C)CCCC3(C)C)cc[n+]2CCO)C(C)(C)CCC1 [A2E]
maximum of excitation spectrum ([2]; monitored at 600 nm emission): 418 nm | major peak of absorbance spectrum [2]: 435 nm
